Test results taken from US20240024291A1, “Uses of Dihydroorotate Dehydrogenase Inhibitors” (University of Maryland, Baltimore, priority 2022, published 2024).
pIC50: −log10 of the molar value.

What was measured:
[1] = test system: 08-387 glioblastoma neurosphere line; assay: CellTiter-Glo in vitro proliferation assay; format: cell-based, human; conditions: for pIC50: Homo sapiens
Method: (§1) A Biospherix X3, hypoxic incubation system, was maintained at 37° C., 1% 02, 5% CO2, and 94% N2 (Biospherix, Ltd—Parish, NY) to conduct in vitro hypoxic experiments. Cells were plated, then incubated in normoxia overnight before transferring the culture dishes to hypoxia for the duration indicated in the main text.
(§2) […] Cell Titer-Glo® Luminescent Cell Viability Assay (Promega, Madison, WI, USA) was performed 72 hours after treatment. Luminescence was determined using a Cytation 5 reader and Gen5 software package (BioTek, Winooski, VT, USA).
(§3) The compound's efficacy was examined against a collection of genetically diverse patient-derived GSC lines in vitro. The IC50 profiles of compound 1 in the seven GSC lines tested were established using the CellTiter-Glo® reagent and calculated with GraphPad software.

[2] = test system: 913 glioblastoma neurosphere line; assay: CellTiter-Glo in vitro proliferation assay; format: cell-based, human
Method: as §1, §2, §3

[3] = test system: 08-387 neurosphere line; assay: Western blot for cleaved PARP1; format: cell-based, human; conditions: 10 nM
Method: (§4) Western Blots were performed using 25 µg of protein per sample loaded onto NuPAGE® Novex® 4-12% Bis-Tris protein gels and transferred onto nitrocellulose membranes that were then blocked with 5% BSA in PBS and 0.1% Tween (PBST). Primary antibody incubation was performed in 5% BSA in PBST at 4° C. overnight, and HRP-labeled secondary antibody incubation (1:5000) was performed for one hour at room temperature in 5% BSA in PBST.
(§5) Antibodies used for western blotting were acquired from the following sources: Cleaved PARP (Asp214) (D64E10) XP® Rabbit mAb, Cell Signaling Technology Cat#5625, RRID:AB_10699459, 1:1000 for Western blots. Phospho-H2AX, Millipore Cat#RRID:AB_2755003, 1:1000 for Western blots, and 1:250 for immunofluorescence imaging. p-Tubulin, Millipore Cat #MAB5564, RRID:AB 11212768, 1:10,000 for Western blots. p44/42 MAPK (Erk1/2) (137F5) Rabbit mAb (Cell Signaling Technology Cat #4695, RRID:AB_390779) 1:1000 for Western blots; Phospho-p44/42 MAPK (Erk1/2) (Thr202/Tyr204) (Cell Signaling Technology Cat #9101, RRID:AB_331646) 1:1000 for Western blots; Akt Antibody (Cell Signaling Technology Cat #9272, RRID:AB_329827) 1:1000 for Western blots; Phospho-Akt (Ser473) Antibody (Cell Signaling Technology Cat #9271, RRID:AB 329825) 1:1000 for Western blots.
(§6) Poly(ADP-ribose) polymerase 1 (PARP1) is a nuclear protein that is activated by binding to DNA lesions and catalyzes the poly(ADP-ribosyl)ation of various nuclear proteins, including PARP1 itself, to recruit the DNA repair machinery to DNA lesions (53, 54. When excessive DNA damage occurs, PARP1 is cleaved to generate an 89 kDa fragment shown to serve as a cytoplasmic PAR carrier to induce AIF-mediated apoptosis (55). Given the profound induction of DNA damage in compound 1-treated GBM neurospheres, the prevalence of the 89 kDa PARP1 fragment in control and 10 nM compound 1-treated cells was measured. Strikingly, a 9.7- and 56-fold increase in the level of cleaved PARP1 was found in 913 and 08-387 neurosphere lines, respectively, when cultured in normoxia. Similarly, a 9.9- and 71-fold increase was documented in the level of cleaved PARP1 in 913 and 08-387 neurosphere lines cultured in hypoxia (FIG. 6).

[4] = test system: 913 neurosphere line; assay: Western blot for cleaved PARP1; format: cell-based, human; conditions: 10 nM
Method: as §4, §5, §6

[5] = test system: EGFRviii expressing 08-387 and 913 glioblastoma cells; assay: Gemcitabine sensitization assay (Alamar blue); format: cell-based, human; conditions: varying dosages of gemcitabine and 100 nM of compound 1
Method: Ten thousand 08-387 or 913 glioblastoma cells per well were seeded in a 96 well plate. […] Post 72 hr of treatment, cell viability was calculated on Alamar blue absorbance reading.
To further evaluate the potential role of EGFR in compound 1 resistance, the 913 and 08-387 neurosphere lines were transduced with lentiviruses encoding EGFRvIll or GFP (as control) and these neurospheres were challenged with a relatively high dose of 1 mM compound 1.

[6] = test system: 08-387 orthotopic xenografts; assay: Orthotopic glioblastoma xenograft, drug treatment; format: in vivo
Method: (§7) Experiments with animals were performed in compliance with institutional guidelines and regulations. Four- to six-week-old male and female NCG mice (NOD-Prkdcem26Cd52112rgem26Cd22/NjuCrl, Charles River Laboratory, Wilmington, MA) were used in all experiments in approximately equal numbers of each sex in each experimental group. The 08-387 m-Cherry Luciferase or 913 Luciferase expressing cells (1×10 5) were stereotactically injected into the right striatum as previously described (30). Two weeks after the injection of the cells, tumor growth was monitored with bioluminescence imaging using an IVIS Spectrum imaging system equipped with the Living Image software package (Perkin Elmer). Male and female mice harboring orthotopic xenografts with Radiance (p/sec/cm2/sr) equal to or greater than 1x10 6 were randomly assigned to the control or compound 1 treatment groups. Mice were dosed daily by oral gavage with either vehicle (90/10 Kollisolv® PEG400/EtOH solution) or 3 mg/kg compound 1. Animal weight was monitored daily, and mice were sacrificed when they became symptomatic.
(§8) To generate equivalent treatment groups and facilitate the tracking of xenograft growth, these cells were transduced with a mCherry:Luciferase reporter. An equal number of male and female immunodeficient mice were injected, and overall survival was the primary endpoint. Mice were imaged weekly starting two weeks after the injection and then randomized to the two treatment groups when tumor Radiance surpassed 1x10 6 photons/sec/cm^2/sr (sr=units of solid angle or steradian). Compound 1 (3 mg/kg) or vehicle were delivered daily by oral gavage.

[7] = test system: 913 orthotopic xenografts; assay: Orthotopic glioblastoma xenograft, drug treatment; format: in vivo
Method: as §7, §8

For `CCn1c(CO)nn(-c2cc(O[C@@H](C)C(F)(F)F)c(C(=O)Nc3c(F)cccc3Cl)cc2F)c1=O` [Compound 1, N-(2-chloro-6-fluorophenyl)-4-[4-ethyl-4,5-dihydro-3-(hydroxymethyl)-5-oxo-1H-1,2,4-triazol-1-yl]-5-fluoro-2-[(1S)-2,2,2-trifluoro-1-methylethoxy]-benzamide], the “effect of uridine on growth inhibition” value ([1]; 08-387, with 100 mM uridine, all concentrations tested) was “entirely rescued”, the pIC50 ([1]; 08-387, uridine rescue experiment, compound 1 alone, normoxia and hypoxia) was 8.00 to 9.00 and the pIC50 ([1]; 72 h, 08-387, hypoxia) was 7.94. For the same compound, the pIC50 ([1]; 72 h, 08-387, normoxia) was 8.33, the “effect of uridine on growth inhibition” value ([2]; 913, with 100 mM uridine, all concentrations tested) was “entirely rescued” and the pIC50 ([2]; Homo sapiens, 913, uridine rescue experiment, compound 1 alone, normoxia and hypoxia) was 8.00 to 9.00. For the same compound, the pIC50 ([2]; Homo sapiens, 72 h, 913, hypoxia (1% oxygen), 72 hours) was 8.17, the pIC50 ([2]; Homo sapiens, 72 h, 913, normoxia (21% oxygen), 72 hours) was 7.82 and the “increase in the level of cleaved PARP1” value ([3]; 08-387, hypoxia) was 71 fold. The “increase in the level of cleaved PARP1” value ([3]; 08-387, normoxia) was 56 fold, the “increase in the level of cleaved PARP1” value ([4]; 913, hypoxia) was 9.9 fold and the “increase in the level of cleaved PARP1” value ([4]; 913, normoxia) was 9.7 fold. The sensitization to gemcitabine [5] was “sensitizes”, the “tumor radiance compared to controls” value ([6]; 08-387, week 1, 3 mg/kg daily oral) was “roughly the same” and the “tumor radiance lower compared to controls” value ([6]; 08-387, week 2, 3 mg/kg daily oral) was 47%. The “tumor radiance lower compared to controls” value ([6]; 08-387, week 3, 3 mg/kg daily oral) was 75%, the “body weight / tolerability” value ([6]; 08-387 xenograft mice, 3 mg/kg daily oral gavage) was “no significant weight loss” and the “median survival from initiation of treatment” value ([6]; 08-387 xenografts, 3 mg/kg daily oral (vehicle 12 days)) was 19 days. For the same compound, the “increase in median survival” value ([6]; 08-387 xenografts, vs vehicle) was 58%, the “tumor radiance lower than in vehicle controls” value (from here on “tumor radiance lower than”) ([7]; 913, week 1, 3 mg/kg daily oral) was 6.5% and the “tumor radiance lower than” value ([7]; 913, week 2, 3 mg/kg daily oral) was 41%. For the same compound, the “tumor radiance lower than” value ([7]; 913, week 3, 3 mg/kg daily oral) was 52%, the “body weight / tolerability” value ([7]; 913 xenograft mice, 3 mg/kg daily oral gavage) was “no significant weight loss” and the “median survival from initiation of treatment” value ([7]; 913 xenografts, 3 mg/kg daily oral (vehicle 32 days)) was 41 days. For the same compound, the “increase in median survival” value ([7]; 913 xenografts, vs vehicle) was 28%.
